Measured values as given in patent US20210122730A1, “GLUCOCORTICOID RECEPTOR MODULATORS” (ORIC Pharmaceuticals, Inc., priority 2017, published 2021).

Target: T1, GR (Homo sapiens, UniProt P04150)
T1 construct: expressed in transfected cells; host or cells: CHO-K1
T1 sequence (P04150 1-777): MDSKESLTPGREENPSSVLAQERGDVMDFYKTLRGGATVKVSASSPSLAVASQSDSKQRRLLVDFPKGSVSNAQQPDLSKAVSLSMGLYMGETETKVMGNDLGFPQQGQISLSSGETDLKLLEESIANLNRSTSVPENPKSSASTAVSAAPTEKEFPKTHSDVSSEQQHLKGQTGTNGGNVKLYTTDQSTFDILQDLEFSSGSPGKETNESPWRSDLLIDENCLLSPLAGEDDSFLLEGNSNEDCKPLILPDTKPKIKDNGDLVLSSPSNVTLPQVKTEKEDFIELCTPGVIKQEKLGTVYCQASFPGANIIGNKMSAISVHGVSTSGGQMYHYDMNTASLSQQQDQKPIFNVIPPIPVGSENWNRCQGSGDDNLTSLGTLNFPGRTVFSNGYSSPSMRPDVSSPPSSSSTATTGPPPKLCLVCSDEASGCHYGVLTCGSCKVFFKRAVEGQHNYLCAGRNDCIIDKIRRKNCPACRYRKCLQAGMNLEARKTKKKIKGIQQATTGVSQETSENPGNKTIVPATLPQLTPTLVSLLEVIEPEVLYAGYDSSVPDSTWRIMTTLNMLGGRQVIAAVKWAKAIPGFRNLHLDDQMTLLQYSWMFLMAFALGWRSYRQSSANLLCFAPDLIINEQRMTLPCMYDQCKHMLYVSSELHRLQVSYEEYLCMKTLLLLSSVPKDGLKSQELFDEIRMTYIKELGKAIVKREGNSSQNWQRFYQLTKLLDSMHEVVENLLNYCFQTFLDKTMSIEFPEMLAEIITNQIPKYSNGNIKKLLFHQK
Assay: In Vitro GR Luciferase Reporter Assay (antagonist mode, CHO-K1-GR-MMTV-Luc reporter cells)
Assay type: cell-based
Conditions: antagonist assay with 10 nM Dexamethasone, 18-24 hours
Source text: Example A: In Vitro GR Luciferase Reporter Assay
Cell Line: CHO-K1-GR-MMTV-Luc reporter cells
Culture Media: DMEM (with phenol red)+10% FBS
Assay Media: DMEM (without phenol red)+10% CSS
Culture CHO-K1I-GR-MMTV-Luc reporter cells in 15 cm plates in Culture Media at conditions less than 90% confluence.
Prepare 200×DMSO 1:5 serial dilutions of control and test compounds in 96-well non-sterile V bottom plate in DMSO, 8serial dilutions for each compound.
Prepare 5× Assay Media diluted compound serial dilutions in 96-well non-sterile V bottom plate: Add 97.5 uL/well of Assay Media into 96-well then add 2.5 ul of 200× concentration of compounds and mix well.
Seed cells for Antagonist Assay: […] CHO-K1-GR-MMTV-Luc reporter cells were seeded in a Corning 3707 flat clear bottom 384-well white TC plate in 20 ul of Assay Media containing 12.5 nM Dexamethasone (final concentration=10 nM).
Add compounds: 5 ul of assay media diluted compounds were added to appropriate wells and followed a quick spin (1000 rpm, 10 sec) to bring media and cells to the bottom of plate. The plates were covered with SealMate film to avoid evaporation and placed in 37° C. incubator for approximately 18-24 hours.
Read plates: Equilibrate appropriate amount of Promega OneGlo luciferase reagent to room temperature. Remove the plates from incubator and add 25 uL of OneGlo reagent/well by multiple channel pipette and read the plates with Tecan F500 luminometer within 3 minutes.
The ability of the compounds disclosed herein to inhibit GR activity was quantified and the respective IC50 value was determined. Table 1and Table 2provide the cellular IC50 values of compounds disclosed herein.

Structure (SMILES)	IC50
Cc1ccc(S(=O)(=O)[C@H]2CCC3=Cc4c(cnn4-c4ccc(F)cc4)C[C@]3(C(=O)c3ccccn3)C2)cc1 [Example 1, ((4aS,6S)-1-(4-Fluorophenyl)-6-tosyl-1,4,5,6,7,8-hexahydro-4aH-benzo[f]indazol-4a-yl)(pyridin-2-yl)methanone]	≤ 100 nM
Cc1ccc(S(=O)(=O)[C@@H]2CCC3=Cc4c(cnn4-c4ccc(F)cc4)C[C@]3(C(=O)c3ccccn3)C2)cc1 [Example 2, ((4aS,6R)-1-(4-Fluorophenyl)-6-tosyl-1,4,5,6,7,8-hexahydro-4aH-benzo[f]indazol-4a-yl)(pyridin-2-yl)methanone]	≤ 100 nM
Cn1cc(S(=O)(=O)[C@H]2CCC3=Cc4c(cnn4-c4ccc(F)cc4)C[C@]3(C(=O)c3cc(C(F)(F)F)ccn3)C2)cn1 [Example 3, ((4aS,6S)-1-(4-Fluorophenyl)-6-((1-methyl-1H-pyrazol-4-yl)sulfonyl)-1,4,5,6,7,8-hexahydro-4aH-benzo[f]indazol-4a-yl)(4-(trifluoromethyl)pyridin-2-yl)methanone]	≤ 100 nM
O=C(c1ccccc1)N(C1CC1)[C@H]1CCC2=Cc3c(cnn3-c3ccc(F)cc3)C[C@]2(C(=O)c2ccccn2)C1 [Example 6, N-Cyclopropyl-N-((4aS,6S)-1-(4-fluorophenyl)-4a-picolinoyl-4,4a,5,6,7,8-hexahydro-1H-benzo[f]indazol-6-yl)benzamide]	≤ 100 nM
O=C(c1ccccn1)[C@]12Cc3cnn(-c4ccc(F)cc4)c3C=C1CC[C@H](S(=O)(=O)N1CCCCC1)C2 [Example 7, [(4aS,6S)-1-(4-Fluorophenyl)-6-(1-piperidylsulfonyl)-5,6,7,8-tetrahydro-4H-benzo[f]indazol-4a-yl]-(2-pyridyl)methanone]	≤ 100 nM
Cc1ccc(S(=O)(=O)[C@H]2CCC3=Cc4c(cnn4-c4ccc(F)cc4)C[C@]3(C(=O)c3nccs3)C2)cc1 [Example 8, ((4aS,6S)-1-(4-fluorophenyl)-6-tosyl-1,4,5,6,7,8-hexahydro-4aH-benzo[f]indazol-4a-yl)(thiazol-2-yl)methanone]	≤ 100 nM
Cc1ccc(S(=O)(=O)[C@@H]2CCC3=Cc4c(cnn4-c4ccc(F)cc4)C[C@]3(C(=O)c3nccs3)C2)cc1 [Example 9, ((4aS,6R)-1-(4-fluorophenyl)-6-tosyl-1,4,5,6,7,8-hexahydro-4aH-benzo[f]indazol-4a-yl)(thiazol-2-yl)methanone]	≤ 100 nM
O=C(c1ccccn1)[C@]12Cc3cnn(-c4ccc(F)cc4)c3C=C1CC[C@H](S(=O)(=O)c1ccc(C(F)(F)F)cc1)C2 [Example 10, ((4aS,6S)-1-(4-fluorophenyl)-6-((4-(trifluoromethyl)phenyl)sulfonyl)-1,4,5,6,7,8-hexahydro-4aH-benzo[f]indazol-4a-yl)(pyridin-2-yl)methanone]	≤ 100 nM
O=C(c1ccccn1)[C@]12Cc3cnn(-c4ccc(F)cc4)c3C=C1CC[C@@H](S(=O)(=O)c1ccc(C(F)(F)F)cc1)C2 [Example 11, ((4aS,6R)-1-(4-fluorophenyl)-6-((4-(trifluoromethyl)phenyl)sulfonyl)-1,4,5,6,7,8-hexahydro-4aH-benzo[f]indazol-4a-yl)(pyridin-2-yl)methanone]	≤ 100 nM
O=C(c1nccs1)[C@]12Cc3cnn(-c4ccc(F)cc4)c3C=C1CC[C@H](S(=O)(=O)c1ccc(C(F)(F)F)cc1)C2 [Example 12, ((4aS,6S)-1-(4-fluorophenyl)-6-((4-(trifluoromethyl)phenyl)sulfonyl)-1,4,5,6,7,8-hexahydro-4aH-benzo[f]indazol-4a-yl)(thiazol-2-yl)methanone]	100 to 1000 nM
O=C(c1nccs1)[C@]12Cc3cnn(-c4ccc(F)cc4)c3C=C1CC[C@@H](S(=O)(=O)c1ccc(C(F)(F)F)cc1)C2 [Example 13, ((4aS,6R)-1-(4-fluorophenyl)-6-((4-(trifluoromethyl)phenyl)sulfonyl)-1,4,5,6,7,8-hexahydro-4aH-benzo[f]indazol-4a-yl)(thiazol-2-yl)methanone]	100 to 1000 nM
O=C(c1cc(C(F)(F)F)ccn1)[C@]12Cc3cnn(-c4ccc(F)cc4)c3C=C1CC[C@H](S(=O)(=O)c1ccc(F)c(F)c1)C2 [Example 14, ((4aS,6S)-6-((3,4-difluorophenyl)sulfonyl)-1-(4-fluorophenyl)-1,4,5,6,7,8-hexahydro-4aH-benzo[f]indazol-4a-yl)(4-(trifluoromethyl)pyridin-2-yl)methanone]	≤ 100 nM
Cc1ccc(S(=O)(=O)[C@H]2CCC3=Cc4c(cnn4-c4ccc(F)cc4)C[C@]3(C(=O)c3cc(C(F)(F)F)ccn3)C2)cc1 [Example 15, ((4aS,6S)-1-(4-fluorophenyl)-6-tosyl-1,4,5,6,7,8-hexahydro-4aH-benzo[f]indazol-4a-yl)(4-(trifluoromethyl)pyridin-2-yl)methanone]	≤ 100 nM

Same assay, conditions: antagonist mode, 10 nM Dexamethasone

Structure (SMILES)	IC50
C[C@@]1(S(=O)(=O)c2ccccc2)CCC2=Cc3c(cnn3-c3ccc(F)cc3)C[C@]2(C(=O)c2ccccn2)C1 (single isomer, unassigned) [Example 116, ((4aS,6R)-1-(4-Fluorophenyl)-6-methyl-6-(phenylsulfonyl)-1,4,5,6,7,8-hexahydro-4aH-benzo[f]indazol-4a-yl)(pyridin-2-yl)methanone or ((4aS,6S)-1-(4-fluorophenyl)-6-methyl-6-(phenylsulfonyl)-1,4,5,6,7,8-hexahydro-4aH-benzo[f]indazol-4a-yl)(pyridin-2-yl)methanone]	≤ 100 nM
C[C@@]1(S(=O)(=O)c2ccccc2)CCC2=Cc3c(cnn3-c3ccc(F)cc3)C[C@]2(C(=O)c2ccccn2)C1 (single isomer, unassigned) [Example 117, ((4aS,6R)-1-(4-Fluorophenyl)-6-methyl-6-(phenylsulfonyl)-1,4,5,6,7,8-hexahydro-4aH-benzo[f]indazol-4a-yl)(pyridin-2-yl)methanone or ((4aS,6S)-1-(4-fluorophenyl)-6-methyl-6-(phenylsulfonyl)-1,4,5,6,7,8-hexahydro-4aH-benzo[f]indazol-4a-yl)(pyridin-2-yl)methanone]	100 to 1000 nM
Cn1cc(S(=O)(=O)C[C@@H]2CCC3=Cc4c(cnn4-c4ccc(F)cc4)C[C@]3(C(=O)c3cc(C(F)(F)F)ccn3)C2)cn1 (single isomer, unassigned) [Example 119]	≤ 100 nM
C[C@H]([C@H]1CCC2=Cc3c(cnn3-c3ccc(F)cc3)C[C@]2(C(=O)c2cc(C(F)(F)F)ccn2)C1)S(=O)(=O)c1cnn(C)c1 (single isomer, unassigned) [Example 120, ((4aR,6S)-1-(4-Fluorophenyl)-6-((R)-1-((1-methyl-1H-pyrazol-4-yl)sulfonyl)ethyl)-1,4,5,6,7,8-hexahydro-4aH-benzo[f]indazol-4a-yl)(4-(trifluoromethyl)pyridin-2-yl)methanone or ((4aR,6S)-1-(4-fluorophenyl)-6-((S)-1-((1-methyl-1H-pyrazol-4-yl)sulfonyl)ethyl)-1,4,5,6,7,8-hexahydro-4aH-benzo[f]indazol-4a-yl)(4-(trifluoromethyl)pyridin-2-yl)methanone]	≤ 100 nM
C[C@H]([C@H]1CCC2=Cc3c(cnn3-c3ccc(F)cc3)C[C@]2(C(=O)c2cc(C(F)(F)F)ccn2)C1)S(=O)(=O)c1cnn(C)c1 (single isomer, unassigned) [Example 121, ((4aR,6S)-1-(4-Fluorophenyl)-6-((R)-1-((1-methyl-1H-pyrazol-4-yl)sulfonyl)ethyl)-1,4,5,6,7,8-hexahydro-4aH-benzo[f]indazol-4a-yl)(4-(trifluoromethyl)pyridin-2-yl)methanone or ((4aR,6S)-1-(4-fluorophenyl)-6-((S)-1-((1-methyl-1H-pyrazol-4-yl)sulfonyl)ethyl)-1,4,5,6,7,8-hexahydro-4aH-benzo[f]indazol-4a-yl)(4-(trifluoromethyl)pyridin-2-yl)methanone]	≤ 100 nM
